In US20250325534A1, “MICROBIOCIDAL TETRAHYDROISOQUINOLINE DERIVATIVES” (SYNGENTA CROP PROTECTION AG, priority 2021, published 2025):

Tests used:
Phaeosphaeria nodorum = Phaeosphaeria nodorum (Septoria nodorum) / wheat / leaf disc preventative (glume blotch); format: in vivo; conditions: Parastagonospora nodorum, foliar, inoculated 2 days after application
Protocol: Example B9: Phaeosphaeria nodorum (Septoria nodorum)/Wheat/Leaf Disc Preventative (Glume Blotch) Wheat leaf segments cv. Kanzler are placed on agar in a multiwell plate (24-well format) and sprayed with the formulated test compound diluted in water. The leaf disks are inoculated with a spore suspension of the fungus 2 days after application. The inoculated test leaf disks are incubated at 20° C. and 75% relative humidity under a light regime of 12 h light/12 h darkness in a climate cabinet and the activity of a compound is assessed as percent disease control compared to untreated when an appropriate level of disease damage appears in untreated check leaf disks (5-7 days after application).

Monographella nivalis = Monographella nivalis (Microdochium nivale) / liquid culture (foot rot cereals); format: cell-based; conditions: 96 h, photometrically 4-5 days after application, read-out: control of Monographella nivalis
Outline: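 Test compound, applied as a DMSO solution, was challenged with fungal spores suspended in potato dextrose broth; after 4-5 days at 24° C, photometric readout gave inhibition of growth.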

Alternaria solani = Alternaria solani / tomato / leaf disc (early blight); format: in vivo; conditions: foliar, inoculated 2 days after application, vs untreated control
[1] = tested on: Mycosphaerella graminicola; experiment: Mycosphaerella graminicola (Septoria tritici) / liquid culture (Septoria blotch); format: cell-based; conditions: Zymoseptoria tritici, 96 h, photometrically 4-5 days after application, read-out: control of Mycosphaerella graminicola
Outline: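 Growth inhibition measured by photometry 4-5 days post application, at 24° C incubation. Test compound supplied as DMSO solution; fungal conidia from cryostorage suspended directly in potato dextrose broth as inoculum.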

Pyrenophora teres = Pyrenophora teres / barley / leaf disc preventative (net blotch); format: in vivo; conditions: foliar, inoculated 2 days after application
Protocol: Example B16: Pyrenophora teres/Barley/Leaf Disc Preventative (Net Blotch) Barley leaf segments cv. Hasso are placed on agar in a multiwell plate (24-well format) and sprayed with the formulated test compound diluted in water. The leaf segments are inoculated with a spore suspension of the fungus 2 days after application. The inoculated leaf segments are incubated at 20° C. and 65% relative humidity under a light regime of 12 h light/12 h darkness in a climate cabinet and the activity of a compound is assessed as disease control compared to untreated when an appropriate level of disease damage appears in untreated check leaf segments (5-7 days after application).

Mycosphaerella arachidis = Mycosphaerella arachidis (Cercospora arachidicola) / liquid culture (early leaf spot); format: cell-based; conditions: 96 h, photometrically 4-5 days after application, read-out: control of Mycosphaerella arachidis
Outline: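 Photometric growth inhibition, read 4-5 days post-application at 24 °C, of Cercospora arachidicola spores suspended in potato dextrose broth and exposed to test compound delivered from DMSO solution.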

[2] = tested on: Blumeria graminis f. sp. tritici; experiment: Blumeria graminis f. sp. tritici / wheat / leaf disc preventative (powdery mildew); format: in vivo; conditions: foliar, inoculated 1 day after application
Protocol: Example B7: Blumeria graminis f. Sp. Tritici (Erysiphe graminis f. Sp. Tritici)/Wheat/Leaf Disc Preventative (Powdery Mildew on Wheat) Wheat leaf segments cv. Kanzler are placed on agar in a multiwell plate (24-well format) and sprayed with the formulated test compound diluted in water. The leaf disks are inoculated by shaking powdery mildew infected plants above the test plates 1 day after application. The inoculated leaf disks are incubated at 20° C. and 60% relative humidity under a light regime of 24 h darkness followed by 12 h light/12 h darkness in a climate chamber and the activity of a compound is assessed as percent disease control compared to untreated when an appropriate level of disease damage appears on untreated check leaf segments (6-8 days after application).

Botryotinia fuckeliana = Botryotinia fuckeliana (Botrytis cinerea) / liquid culture (gray mould); format: cell-based; conditions: 72 h, growth inhibition photometrically 3-4 days after application, read-out: control of Botryotinia fuckeliana
Protocol: Example B2: Botryotinia Fuckeliana (Botrytis cinerea)/Liquid Culture (Gray Mould) Conidia of the fungus from cryogenic storage are directly mixed into a nutrient broth (Vogels broth). After placing a DMSO solution of test compound into a microtiter plate (96-well format), the nutrient broth containing the fungal spores is added. The test plates are incubated at 24° C. and the inhibition of growth is determined photometrically 3-4 days after application.

Glomerella lagenarium = Glomerella lagenarium (Colletotrichum lagenarium) / liquid culture (anthracnose); format: cell-based; conditions: Colletotrichum orbiculare, 72 h, photometrically 3-4 days after application, read-out: control of Glomerella lagenarium
Outline: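 Conidia in potato dextrose broth added to test compound delivered as DMSO solution in microtiter plates; incubation at 24° C. Growth inhibition read photometrically 3-4 days after application.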

[3] = tested on: Puccinia recondita f. sp. tritici; experiment: Puccinia recondita f. sp. tritici / wheat / leaf disc preventative (brown rust); format: in vivo; conditions: foliar, inoculated 1 day after application
Protocol: Example B14: Puccinia recondita f. Sp. Tritici/Wheat/Leaf Disc Preventative (Brown Rust) Wheat leaf segments cv. Kanzler are placed on agar in multiwell plates (24-well format) and sprayed with the formulated test compound diluted in water. The leaf disks are inoculated with a spore suspension of the fungus 1 day after application. The inoculated leaf segments are incubated at 19° C. and 75% relative humidity under a light regime of 12 h light/12 h darkness in a climate cabinet and the activity of a compound is assessed as percent disease control compared to untreated when an appropriate level of disease damage appears in untreated check leaf segments (7-9 days after application).

C[C@H]1c2ccccc2[C@@](C)(c2cnn(C)c2)CN1C(=O)c1cc(-c2ccccc2)on1 [Compound P-2, [(1S,4S)-1,4-dimethyl-4-(1-methylpyrazol-4-yl)-1,3-dihydroisoquinolin-2-yl]-(5-phenylisoxazol-3-yl)methanone]
≥ 80%: pest or weed control at 200 ppm (Phaeosphaeria nodorum) | inhibition of growth at 20 ppm (Monographella nivalis) | pest or weed control at 200 ppm (Alternaria solani) | inhibition of growth at 20 ppm [1] | pest or weed control at 200 ppm (Pyrenophora teres) | inhibition of growth at 20 ppm (Mycosphaerella arachidis)

CC1c2ccccc2C(C)(c2cnn(C)c2F)CN1C(=O)c1cc(-c2ccc(F)cc2F)on1 (centres unmarked) [Compound P-11, [5-(2,4-difluorophenyl)isoxazol-3-yl]-[4-(5-fluoro-1-methyl-pyrazol-4-yl)-1,4-dimethyl-1,3-dihydroisoquinolin-2-yl]methanone]
≥ 80%: pest or weed control at 200 ppm (Phaeosphaeria nodorum) | pest or weed control at 200 ppm [2] | inhibition of growth at 20 ppm (Monographella nivalis) | pest or weed control at 200 ppm (Alternaria solani) | inhibition of growth at 20 ppm [1] | inhibition of growth at 20 ppm (Botryotinia fuckeliana) | inhibition of growth at 20 ppm (Glomerella lagenarium) | inhibition of growth at 20 ppm (Mycosphaerella arachidis)

C#Cc1ccc(-c2cc(C(=O)N3Cc4ccccc4C(c4cnn(C)c4)C3)no2)c(F)c1 (centres unmarked) [Compound P-31, [5-(4-ethynyl-2-fluoro-phenyl)isoxazol-3-yl]-[4-(1-methylpyrazol-4-yl)-3,4-dihydro-1H-isoquinolin-2-yl]methanone]
≥ 80%: pest or weed control at 200 ppm [3]

Cn1ncc(C2CN(C(=O)c3cc(-c4ccc(F)cc4F)on3)Cc3ccccc32)c1Br (centres unmarked) [Compound P-45, [4-(5-bromo-1-methyl-pyrazol-4-yl)-3,4-dihydro-1H-isoquinolin-2-yl]-[5-(2,4-difluorophenyl)isoxazol-3-yl]methanone]
≥ 80%: pest or weed control at 200 ppm (Phaeosphaeria nodorum) | inhibition of growth at 20 ppm (Monographella nivalis) | pest or weed control at 200 ppm (Alternaria solani) | inhibition of growth at 20 ppm [1] | pest or weed control at 200 ppm (Pyrenophora teres) | inhibition of growth at 20 ppm (Botryotinia fuckeliana) | inhibition of growth at 20 ppm (Glomerella lagenarium) | inhibition of growth at 20 ppm (Mycosphaerella arachidis)

COc1ccc2c(c1)CN(C(=O)c1cc(-c3ccc(F)cc3F)on1)CC2c1cnn(C)c1 (centres unmarked) [Compound P-51, [5-(2,4-difluorophenyl)isoxazol-3-yl]-[7-methoxy-4-(1-methylpyrazol-4-yl)-3,4-dihydro-1H-isoquinolin-2-yl]methanone]
≥ 80%: pest or weed control at 200 ppm (Phaeosphaeria nodorum) | inhibition of growth at 20 ppm (Monographella nivalis) | pest or weed control at 200 ppm (Alternaria solani) | inhibition of growth at 20 ppm [1] | pest or weed control at 200 ppm (Pyrenophora teres) | inhibition of growth at 20 ppm (Glomerella lagenarium) | inhibition of growth at 20 ppm (Mycosphaerella arachidis)

Cc1c(C2CN(C(=O)c3nnc(-c4ccc(F)cc4)s3)Cc3ccccc32)cnn1C (centres unmarked) [Compound P-63, [4-(1,5-dimethylpyrazol-4-yl)-3,4-dihydro-1H-isoquinolin-2-yl]-[5-(4-fluorophenyl)-1,3,4-thiadiazol-2-yl]methanone]
≥ 80%: pest or weed control at 200 ppm (Phaeosphaeria nodorum) | pest or weed control at 200 ppm [2] | inhibition of growth at 20 ppm (Monographella nivalis) | pest or weed control at 200 ppm (Alternaria solani) | inhibition of growth at 20 ppm [1] | pest or weed control at 200 ppm (Pyrenophora teres) | inhibition of growth at 20 ppm (Botryotinia fuckeliana) | inhibition of growth at 20 ppm (Glomerella lagenarium) | inhibition of growth at 20 ppm (Mycosphaerella arachidis)

Cc1c(C2CN(C(=O)c3cc(-c4ccccc4F)no3)Cc3ccccc32)cnn1C (centres unmarked) [Compound P-110, [4-(1,5-dimethylpyrazol-4-yl)-3,4-dihydro-1H-isoquinolin-2-yl]-[3-(2-fluorophenyl)isoxazol-5-yl]methanone]
≥ 80%: pest or weed control at 200 ppm (Phaeosphaeria nodorum) | inhibition of growth at 20 ppm (Monographella nivalis) | pest or weed control at 200 ppm (Alternaria solani) | inhibition of growth at 20 ppm [1] | pest or weed control at 200 ppm (Pyrenophora teres) | inhibition of growth at 20 ppm (Botryotinia fuckeliana) | inhibition of growth at 20 ppm (Glomerella lagenarium) | inhibition of growth at 20 ppm (Mycosphaerella arachidis)

Cc1nn(C)c(C)c1C1CN(C(=O)c2cc(-c3ccccc3F)on2)Cc2ccccc21 (centres unmarked) [Compound P-117, [5-(2-fluorophenyl)isoxazol-3-yl]-[4-(1,3,5-trimethylpyrazol-4-yl)-3,4-dihydro-1H-isoquinolin-2-yl]methanone]
≥ 80%: pest or weed control at 200 ppm (Phaeosphaeria nodorum) | inhibition of growth at 20 ppm (Monographella nivalis) | inhibition of growth at 20 ppm [1] | pest or weed control at 200 ppm (Pyrenophora teres) | inhibition of growth at 20 ppm (Glomerella lagenarium) | inhibition of growth at 20 ppm (Mycosphaerella arachidis)

Cc1c(C2CN(C(=O)c3cc(-c4ccc(F)cc4)on3)Cc3ccccc32)cnn1C (centres unmarked) [Compound P-120, [4-(1,5-dimethylpyrazol-4-yl)-3,4-dihydro-1H-isoquinolin-2-yl]-[5-(4-fluorophenyl)isoxazol-3-yl]methanone]
≥ 80%: pest or weed control at 200 ppm (Phaeosphaeria nodorum) | inhibition of growth at 20 ppm (Monographella nivalis) | pest or weed control at 200 ppm (Alternaria solani) | inhibition of growth at 20 ppm [1] | pest or weed control at 200 ppm (Pyrenophora teres) | inhibition of growth at 20 ppm (Botryotinia fuckeliana) | inhibition of growth at 20 ppm (Glomerella lagenarium) | inhibition of growth at 20 ppm (Mycosphaerella arachidis)

Cn1cc(C2CN(C(=O)c3cc(-c4c(F)cc(F)cc4F)on3)Cc3ccccc32)cn1 (centres unmarked) [Compound P-136, [4-(1-methylpyrazol-4-yl)-3,4-dihydro-1H-isoquinolin-2-yl]-[5-(2,4,6-trifluorophenyl)isoxazol-3-yl]methanone]
≥ 80%: pest or weed control at 200 ppm (Phaeosphaeria nodorum) | inhibition of growth at 20 ppm (Monographella nivalis) | pest or weed control at 200 ppm (Alternaria solani) | inhibition of growth at 20 ppm [1] | pest or weed control at 200 ppm (Pyrenophora teres)

CC1c2ccccc2C(c2cnn(C)c2)CN1C(=O)c1cc(-c2ccc(F)cc2F)on1 (centres unmarked) [Compound P-141, [5-(2,4-difluorophenyl)isoxazol-3-yl]-[1-methyl-4-(1-methylpyrazol-4-yl)-3,4-dihydro-1H-isoquinolin-2-yl]methanone]
≥ 80%: pest or weed control at 200 ppm (Phaeosphaeria nodorum) | pest or weed control at 200 ppm [2] | inhibition of growth at 20 ppm (Monographella nivalis) | pest or weed control at 200 ppm (Alternaria solani) | inhibition of growth at 20 ppm [1] | pest or weed control at 200 ppm (Pyrenophora teres) | inhibition of growth at 20 ppm (Botryotinia fuckeliana) | inhibition of growth at 20 ppm (Glomerella lagenarium) | inhibition of growth at 20 ppm (Mycosphaerella arachidis)

Cn1cc(C2CN(C(=O)c3cc(-c4ccc(F)cc4F)no3)Cc3ccccc32)cn1 (centres unmarked) [Compound P-151, [3-(2,4-difluorophenyl)isoxazol-5-yl]-[4-(1-methylpyrazol-4-yl)-3,4-dihydro-1H-isoquinolin-2-yl]methanone]
≥ 80%: pest or weed control at 200 ppm (Phaeosphaeria nodorum) | pest or weed control at 200 ppm [2] | inhibition of growth at 20 ppm (Monographella nivalis) | pest or weed control at 200 ppm (Alternaria solani) | inhibition of growth at 20 ppm [1] | pest or weed control at 200 ppm (Pyrenophora teres) | inhibition of growth at 20 ppm (Botryotinia fuckeliana) | inhibition of growth at 20 ppm (Glomerella lagenarium) | inhibition of growth at 20 ppm (Mycosphaerella arachidis)

Cc1ccc2c(c1)C(C)(c1cnn(C)c1)CN(C(=O)c1cc(-c3ccc(F)cc3F)on1)C2C (centres unmarked) [Compound P-216, [5-(2,4-difluorophenyl)isoxazol-3-yl]-[1,4,6-trimethyl-4-(1-methylpyrazol-4-yl)-1,3-dihydroisoquinolin-2-yl]methanone]
≥ 80%: inhibition of growth at 20 ppm (Monographella nivalis) | inhibition of growth at 20 ppm [1] | pest or weed control at 200 ppm (Pyrenophora teres) | inhibition of growth at 20 ppm (Botryotinia fuckeliana) | inhibition of growth at 20 ppm (Glomerella lagenarium)
